Target: PERK recombinant enzyme (cytoplasmic domain corresponding to residues 540-1115) (Homo sapiens (Human), UniProt Q9NZJ5)
Test: PERK enzyme assay, Method 1: ADP-Glo Kinase Assay (quantification of ADP formed)
Assay type: biochemical
Conditions: 52 microM ATP, 8 nM PERK, 300 microM eIF2alpha peptide substrate, 60 minutes at room temperature
Description: The biochemical activity of compounds was determined by incubation with PERK recombinant enzyme (cytoplasmic domain corresponding to residues 540-1115) and elF2alpha peptide substrate (Aminoacid sequence: LLSELSRRRIRSINK—SEQ ID Nr: 1; purchased from American Peptide Company, product #341923). This was followed by:
Method 1: Quantification of the ADP Tormed from the Kinase Reaction by ADP-Glo™ Kinase Assay (Promega Cat. 9102). Utra Pure ATP was Included into ADP-Glo™ Kinase Assay kit.
Compounds were 3-fold serially diluted in order to obtain from 3.333 to 0.000169 microM final concentration, then incubated for 60 minutes at room temperature in the presence of ATP, substrate and enzyme in a final volume of 15 microL of kinase buffer in 384-well plates (Perkin Elmer cat. #6007290).
The final concentration of the different reagents is 52 microM ATP, 8 nM PERK, 300 microM substrate, 50 mM Hepes pH 7.5, 3 mM MgCl2, 1 mM DTT, 3 microM Na3VO4, 0.2 mg/ml BSA, 1% DMSO.
After 60 minutes, an equal volume (15 microL) of ADP-Glo™ Reagent was added to each well to terminate the kinase reaction and deplete the remaining ATP. After 40 minutes, 30 microL of Kinase Detection Reagent is added, which simultaneously converts ADP to ATP and allows the newly synthesized ATP to be measured using a coupled luciferase/luciferin reaction. After further 40 minutes luminescence was read by ViewLux Instrument (Perkin Elmer). The data are analyzed by GraphPad Prism software which provides sigmoidal fittings of the curves for IC50 determination using a 4 parameter logistic equation: y=bottom+(top−bottom)/(1+10^((log IC50−x)*slope))
where x is the logarithm of the inhibitor concentration, y is the response; y starts at bottom and goes to top with a sigmoid shape.

Sequence of PERK recombinant enzyme (cytoplasmic domain corresponding to residues 540-1115) (Q9NZJ5 540-1115): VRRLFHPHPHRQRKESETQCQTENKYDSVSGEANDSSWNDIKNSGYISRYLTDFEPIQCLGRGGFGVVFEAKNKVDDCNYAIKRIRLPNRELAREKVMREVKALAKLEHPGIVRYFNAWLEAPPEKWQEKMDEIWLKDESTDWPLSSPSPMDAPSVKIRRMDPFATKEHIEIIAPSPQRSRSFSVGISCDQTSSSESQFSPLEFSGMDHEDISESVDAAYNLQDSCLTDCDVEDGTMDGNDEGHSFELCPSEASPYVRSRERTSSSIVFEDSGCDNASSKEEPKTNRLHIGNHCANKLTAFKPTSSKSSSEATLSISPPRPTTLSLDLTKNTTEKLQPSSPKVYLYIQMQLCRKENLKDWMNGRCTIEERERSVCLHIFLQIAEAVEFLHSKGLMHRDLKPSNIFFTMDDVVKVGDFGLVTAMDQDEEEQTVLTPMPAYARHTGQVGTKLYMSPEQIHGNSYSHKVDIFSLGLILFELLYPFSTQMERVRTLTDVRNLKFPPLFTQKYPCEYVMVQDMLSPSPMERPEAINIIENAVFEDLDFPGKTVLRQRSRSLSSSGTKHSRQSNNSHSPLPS

Row | pIC50 | IC50 [nM] | Compound
1 | AA (7.8 ≤ pIC50) |  | Cn1cc(-c2cccc(NS(=O)(=O)c3ccc4c(c3)CCO4)c2F)c2c(N)ncnc21 [cmpd 27, 2,3-Dihydro-benzofuran-5-sulfonic acid [3-(4-amino-7-methyl-7H-pyrrolo[2,3-d]pyrimidin-5-yl)-2-fluoro-phenyl]-amide]
2 | AA (7.8 ≤ pIC50) |  | COc1cc(F)c(S(=O)(=O)Nc2cccc(-c3nn(C)c4ncnc(N)c34)c2F)cc1Cl [cmpd 9, N-[3-(4-Amino-1-methyl-1H-pyrazolo[3,4-d]pyrimidin-3-yl)-2-fluoro-phenyl]-5-chloro-2-fluoro-4-methoxy-benzenesulfonamide]
3 |  | 15.8 to 50.1 | Cn1cc(-c2cccc(NS(=O)(=O)c3ccc(Br)cc3F)c2F)c2c(N)ncnc21 [cmpd 22, N-[3-(4-Amino-7-methyl-7H-pyrrolo[2,3-d]pyrimidin-5-yl)-2-fluoro-phenyl]-4-bromo-2-fluoro-benzenesulfonamide]
4 |  | 15.8 to 50.1 | COc1ccc(S(=O)(=O)Nc2cccc(-c3nn(C)c4ncnc(N)c34)c2F)cc1C [cmpd 34, N-[3-(4-Amino-1-methyl-1H-pyrazolo[3,4-d]pyrimidin-3-yl)-2-fluoro-phenyl]-4-methoxy-3-methyl-benzenesulfonamide]
5 | AA (7.8 ≤ pIC50) |  | COc1ccc(S(=O)(=O)Nc2cccc(-c3cn(C4CCN(C)CC4)c4ncnc(N)c34)c2F)cc1C [cmpd 38, N-{3-[4-Amino-7-(1-methyl-piperidin-4-yl)-7H-pyrrolo[2,3-d]pyrimidin-5-yl]-2-fluoro-phenyl}-4-methoxy-3-methyl-benzenesulfonamide]
6 | C (pIC50 < 6.8) |  | Cn1cc(-c2cccc(NS(=O)(=O)c3cc(F)ccc3F)c2F)c2c(N)ncnc21 [cmpd 21, N-[3-(4-Amino-7-methyl-7H-pyrrolo[2,3-d]pyrimidin-5-yl)-2-fluoro-phenyl]-2,5-difluoro-benzenesulfonamide]
7 |  | 15.8 to 50.1 | Cn1cc(-c2cccc(NS(=O)(=O)c3ccc(Cl)s3)c2F)c2c(N)ncnc21 [cmpd 47, 5-Chloro-thiophene-2-sulfonic acid [3-(4-amino-7-methyl-7H-pyrrolo[2,3-d]pyrimidin-5-yl)-2-fluoro-phenyl]-amide]
8 |  | 15.8 to 50.1 | CCOc1ccc(S(=O)(=O)Nc2cccc(-c3cn(C)c4ncnc(N)c34)c2F)cc1C [cmpd 28, N-[3-(4-Amino-7-methyl-7H-pyrrolo[2,3-d]pyrimidin-5-yl)-2-fluoro-phenyl]-4-ethoxy-3-methyl-benzenesulfonamide]
9 | C (pIC50 < 6.8) |  | Cn1cc(-c2cccc(NS(=O)(=O)c3ccc(OC(F)(F)F)c(Cl)c3)c2F)c2c(N)ncnc21 [cmpd 50, N-[3-(4-Amino-7-methyl-7H-pyrrolo[2,3-d]pyrimidin-5-yl)-2-fluoro-phenyl]-3-chloro-4-trifluoromethoxy-benzenesulfonamide]
10 |  | 15.8 to 50.1 | Cn1cc(-c2cccc(NS(=O)(=O)c3cnc(Cl)c(Br)c3)c2F)c2c(N)ncnc21 [cmpd 33, 5-Bromo-6-chloro-pyridine-3-sulfonic acid [3-(4-amino-7-methyl-7H-pyrrolo[2,3-d]pyrimidin-5-yl)-2-fluoro-phenyl]-amide]
11 |  | 50.1 to 158 | Cn1cc(-c2cccc(NS(=O)(=O)c3cc(C(F)(F)F)cc(C(F)(F)F)c3)c2F)c2c(N)ncnc21 [cmpd 49, N-[3-(4-Amino-7-methyl-7H-pyrrolo[2,3-d]pyrimidin-5-yl)-2-fluoro-phenyl]-3,5-bis-trifluoromethyl-benzenesulfonamide]
12 | AA (7.8 ≤ pIC50) |  | COc1ccc(S(=O)(=O)Nc2cccc(-c3cn(C4CCN(C(C)C)CC4)c4ncnc(N)c34)c2F)cc1Cl [cmpd 6, N-{3-[4-Amino-7-(1-isopropyl-piperidin-4-yl)-7H-pyrrolo[2,3-d]pyrimidin-5-yl]-2-fluoro-phenyl}-3-chloro-4-methoxy-benzenesulfonamide]
13 |  | 15.8 to 50.1 | COc1ccc(S(=O)(=O)Nc2cccc(-c3cn(C)c4ncnc(N)c34)c2F)cc1C [cmpd 12, N-[3-(4-Amino-7-methyl-7H-pyrrolo[2,3-d]pyrimidin-5-yl)-2-fluoro-phenyl]-4-methoxy-3-methyl-benzenesulfonamide]
14 | C (pIC50 < 6.8) |  | Cc1cc(S(=O)(=O)Nc2cccc(-c3cn(C)c4ncnc(N)c34)c2F)ccc1OC(C)C [cmpd 30, N-[3-(4-Amino-7-methyl-7H-pyrrolo[2,3-d]pyrimidin-5-yl)-2-fluoro-phenyl]-4-isopropoxy-3-methyl-benzenesulfonamide]
15 | AA (7.8 ≤ pIC50) |  | COc1cc(F)c(S(=O)(=O)Nc2cccc(-c3cn(C)c4ncnc(N)c34)c2F)cc1Cl [cmpd 24, N-[3-(4-Amino-7-methyl-7H-pyrrolo[2,3-d]pyrimidin-5-yl)-2-fluoro-phenyl]-5-chloro-2-fluoro-4-methoxy-benzenesulfonamide]
16 | AA (7.8 ≤ pIC50) |  | Cn1cc(-c2cccc(NS(=O)(=O)c3cc(F)c(Br)cc3F)c2F)c2c(N)ncnc21 [cmpd 46, N-[3-(4-Amino-7-methyl-7H-pyrrolo[2,3-d]pyrimidin-5-yl)-2-fluoro-phenyl]-4-bromo-2,5-difluoro-benzenesulfonamide]
17 | AA (7.8 ≤ pIC50) |  | COc1cc(F)c(S(=O)(=O)Nc2cccc(-c3cn(C4CCN(C)CC4)c4ncnc(N)c34)c2F)cc1Cl [cmpd 3, N-{3-[4-Amino-7-(1-methyl-piperidin-4-yl)-7H-pyrrolo[2,3-d]pyrimidin-5-yl]-2-fluoro-phenyl}-5-chloro-2-fluoro-4-methoxy-benzenesulfonamide]
18 | C (pIC50 < 6.8) |  | Cn1cc(-c2cccc(NS(=O)(=O)c3ccc4ccccc4c3)c2F)c2c(N)ncnc21 [cmpd 20, Naphthalene-2-sulfonic acid [3-(4-amino-7-methyl-7H-pyrrolo[2,3-d]pyrimidin-5-yl)-2-fluoro-phenyl]-amide]
19 |  | 15.8 to 50.1 | COc1ccc(S(=O)(=O)Nc2cccc(-c3cn(C4CCN(C5CC5)CC4)c4ncnc(N)c34)c2F)cc1Cl [cmpd 5, N-{3-[4-Amino-7-(1-cyclopropyl-piperidin-4-yl)-7H-pyrrolo[2,3-d]pyrimidin-5-yl]-2-fluoro-phenyl}-3-chloro-4-methoxy-benzenesulfonamide]
20 |  | 50.1 to 158 | COc1ccc(S(=O)(=O)Nc2cccc(-c3cn(C)c4ncnc(N)c34)c2F)cc1OC [cmpd 17, N-[3-(4-Amino-7-methyl-7H-pyrrolo[2,3-d]pyrimidin-5-yl)-2-fluoro-phenyl]-3,4-dimethm-benzenesulfonamide]
21 |  | 50.1 to 158 | CN1CCOc2cc(S(=O)(=O)Nc3cccc(-c4cn(C)c5ncnc(N)c45)c3F)ccc21 [cmpd 18, 4-Methyl-3,4-dihydro-2H-benzo[1,4]oxazine-7-sulfonic acid [3-(4-amino-7-methyl-7H-pyrrolo[2,3-d]pyrimidin-5-yl)-2-fluoro-phenyl]-amide]
22 | AA (7.8 ≤ pIC50) |  | COc1ccc(S(=O)(=O)Nc2cccc(-c3cn(C4CCN(C)CC4)c4ncnc(N)c34)c2F)cc1Cl [cmpd 4, N-{3-[4-Amino-7-(1-methyl-piperidin-4-yl)-7H-pyrrolo[2,3-d]pyrimidin-5-yl]-2-fluoro-phenyl}-3-chloro-4-methoxy-benzenesulfonamide]
23 |  | 15.8 to 50.1 | COc1ccc(S(=O)(=O)Nc2cccc(-c3cn(C4CCN(C5CC5)CC4)c4ncnc(N)c34)c2F)cc1C [cmpd 39, N-{3-[4-Amino-7-(1-cyclopropyl-piperidin-4-yl)-7H-pyrrolo[2,3-d]pyrimidin-5-yl]-2-fluoro-phenyl}-4-methoxy-3-methyl-benzenesulfonamide]
24 |  | 15.8 to 50.1 | COc1ccc(S(=O)(=O)Nc2cccc(-c3cn(C4CCOCC4)c4ncnc(N)c34)c2F)cc1Cl [cmpd 37, N-{3-[4-Amino-7-(tetrahydro-pyran-4-yl)-7H-pyrrolo[2,3-d]pyrimidin-5-yl]-2-fluoro-phenyl}-3-chloro-4-methoxy-benzenesulfonamide]
25 | C (pIC50 < 6.8) |  | Cn1cc(-c2cccc(NS(=O)(=O)c3ccc(O)c(Cl)c3)c2F)c2c(N)ncnc21 [cmpd 67, N-[3-(4-Amino-7-methyl-7H-pyrrolo[2,3-d]pyrimidin-5-yl)-2-fluoro-phenyl]-3-chloro-4-hydroxy-benzenesulfonamide]
26 |  | 50.1 to 158 | COc1ccc(S(=O)(=O)Nc2cccc(-c3cn(C)c4ncnc(N)c34)c2F)cn1 [cmpd 81, 6-Methoxy-pyridine-3-sulfonic acid [3-(4-amino-7-methyl-7H-pyrrolo[2,3-d]pyrimidin-5-yl)-2-fluoro-phenyl]-amide]
27 |  | 15.8 to 50.1 | COc1ccc(S(=O)(=O)Nc2cccc(-c3cn(C4CCNCC4)c4ncnc(N)c34)c2F)cc1C [cmpd 64, N-[3-(4-Amino-7-piperidin-4-yl-7H-pyrrolo[2,3-d]pyrimidin-5-yl)-2-fluoro-phenyl]-4-methoxy-3-methyl-benzenesulfonamide]
28 |  | 15.8 to 50.1 | Cn1cc(-c2cccc(NS(=O)(=O)c3ccc(Br)s3)c2F)c2c(N)ncnc21 [cmpd 48, 5-Bromo-thiophene-2-sulfonic acid [3-(4-amino-7-methyl-7H-pyrrolo[2,3-d]pyrimidin-5-yl)-2-fluoro-phenyl]-amide]

— patent US10918642B2, “N-(substituted-phenyl)-sulfonamide derivatives as kinase inhibitors” (Nerviano Medical Sciences S.R.L., priority 2016, dated 2021)
